Source: patent US9974801B2, “Methods of treating and preventing diseases and disorders of the central nervous system” (The United States of America, as represented by the …, priority 2012, dated 2018)

Tests used:
[1] = system: phagocytic microglia (jellyfish morphology); assay: Phagocytic (jellyfish) microglia after meningeal compression injury, 2P microscopy; type: in vivo, heterozygous CX3CR1-GFP mice; conditions: p<0.05; for percentage of phagocytic (jellyfish) microglia in the imaging field: antagonist in aCSF applied to skull bone 30 min prior to injury, quantified 3 hrs post-injury, vs vehicle, FIG. 3
Method: (§1) Skull Thinning & Compression Injury. For imaging experiments, mice were anesthetized with ketamine (85 mg/kg), xylazine (13 mg/kg), and acepromazine (2 mg/kg) in PBS and maintained at a core temperature of 37° C. The skull bone over the barrel cortex was then thinned to a thickness of ˜30-40 μm as described (PMID: 20134419). For this procedure, the bone was manually thinned over a 30 minute period, and the amount of downward pressure was kept to a minimum. To induce a compression injury, the skull was thinned within 5 min to a thickness of ˜10-15 μm. Once thinned, the blunt of a surgical instrument was used to gently press the pliable skull bone downward. […] In one set of experiments, the skull bone was intentionally cracked to induce a severe injury. Imaging was performed immediately after injury.
Intravital two-photon laser scanning microscopy. Mice with a normally thinned or compressed skull bone were imaged using a Leica SP5 two-photon imaging system (Leica Microsystems, Bannockburn, Ill.) equipped with an 8000 Hz resonant scanner, a 20×/1.0 NA dipping objective, and two Mai Tai HP DeepSee Lasers (SpectraPhysics) tuned to 905, 920 or 970 nm. Fluorescence emission was separated by high efficiency custom dichroic mirrors (Semrock) and collected with a NDD4 external detector (Leica). Stacks of images were acquired using a step size of 1.0 μm to a depth of 150 μm. Time lapse movies were acquired with 1 min intervals between 3D stacks. For all imaging studies, the 20× lens was submerged directly into artificial cerebral spinal fluid (aCSF; 119 mM NaCl, 26.2 mM NaHCO3, 2.5 mm KCl, 1 mM NaH2PO4, 1.3 mM MgCl2, 1.2 mM CaCl2, 0.4% glucose, pH 7.4) placed atop the thinned skull.
Purinergic receptor, connexin hemichannel, and ROS antagonism. Prior to skull thinning, antagonists diluted in aCSF were applied directly to the skull bone, and vehicle was simultaneously applied to the opposite hemisphere to serve as a control. […] Vehicle and purinergic receptor antagonists were applied as a 3 mm diameter bubble on the skull surface and replenished as needed over a 30 min incubation period to prevent drying. This allowed the antagonists to continuously pass through the skull bone. Following the 30 min incubation, the skull was dried and then thinned to induce a compression injury over both hemispheres. Imaging was initiated immediately after injury. For most studies, the skull bone pre-incubated with antagonists was imaged continuously for 3-10 hrs, after which a 3D stack was captured from both the vehicle and antagonist treated areas for quantitative purposes. […] A similar study was conducted using 10 mM CBX.
Image Analysis. All quantitative analyses and processing of 3D/4D imaging data were performed using Imaris 7.0 software (Bitplane). Supplemental movies were constructed and annotated using Adobe Premiere Pro CS4. Microglia “honeycomb” reactions were quantified from 434×434×150 μm (xyz) 3D image stacks obtained at selected time points in CX3CR1^gfp/+ mice. This was accomplished by measuring the total length of microglial processes in contact with the glial limitans. […] Afterward, 10 microglia per mouse were randomly selected for quantification of process length. Only cells with all of their processes in the field of view and no more than 50 μm beneath the skull bone were quantified. Microglial processes that were touching (flat against) the glial limitans were labeled and measured using the Imaris “filaments” tool. […]

[2] = system: microglia processes associated with the glial limitans; assay: Length of microglial processes in contact with the glial limitans after meningeal compression injury; type: in vivo, mice; conditions: for length of microglial processes in contact with the glial limitans: transcranial administration of antagonist before injury, three hours following injury, p<0.05, FIG. 4
Method: as §1
(§2) Intravital two-photon laser scanning microscopy. […] Fluorescence emission was separated by high efficiency custom dichroic mirrors (Semrock) and collected with a NDD4 external detector (Leica). […]
(§3) Purinergic receptor, connexin hemichannel, and ROS antagonism. […] For most studies, the skull bone pre-incubated with antagonists was imaged continuously for 3-10 hrs, after which a 3D stack was captured from both the vehicle and antagonist treated areas for quantitative purposes. […]
Image Analysis. All quantitative analyses and processing of 3D/4D imaging data were performed using Imaris 7.0 software (Bitplane). […] Microglia “honeycomb” reactions were quantified from 434×434×150 μm (xyz) 3D image stacks obtained at selected time points in CX3CR1^gfp/+ mice. […] Afterward, 10 microglia per mouse were randomly selected for quantification of process length. Only cells with all of their processes in the field of view and no more than 50 μm beneath the skull bone were quantified. Microglial processes that were touching (flat against) the glial limitans were labeled and measured using the Imaris “filaments” tool. […]

[3] = Skull bone permeability analysis (transcranial permeation of fluorescent probes); type: in vivo, mice; conditions: applied to intact skull bone as 3 mm bubble; 2P microscopy immediately after loading; FIG. 2
Method: Skull bone permeability analysis. For skull bone permeability studies, the following rhodamine-labeled dextrans were placed directly on the intact skull bone for up to 30 min: 3,000 MW (25 mM), 10,000 MW (5 mM), 40,000 MW (1 mM), and 70,000 MW (0.5 mM). SR101 (1 mM), a sulforhodamine dye, was used as a representative of 600 MW compound. Compounds were replenished as needed to prevent drying. Following the incubation period, the skull bone was quickly thinned and imaged. A 3D stack was captured to determine if the fluorescence could be found beneath the skull bone.
This example illustrates the effect of molecular weight of the compounds on the rate of transcranial permeation. To define the time and size of compounds that pass directly through the intact (non-thinned) skull, […] SR101 (600 MW) or different sized rhodamine-dextrans (25 mM 3,000 MW; 5 mM 10,000 MW; 1 mM 40,000 MW; 0.5 mM 70,000 MW) were applied to the skull bone. A 3 mm diameter bubble was left on the skull surface for the amount of time noted in minutes on the y axis of the table above. Because all compounds fluoresced, 2P microscopy was performed immediately after transcranial loading to determine if the compounds were present in the subarachnoid space.

neutrophils = assay: Neutrophil recruitment following meningeal compression injury; type: in vivo, LysM-GFP transgenic reporter mouse; conditions: p<0.05
Method: Skull Thinning & Compression Injury. For imaging experiments, mice were anesthetized with ketamine (85 mg/kg), xylazine (13 mg/kg), and acepromazine (2 mg/kg) in PBS and maintained at a core temperature of 37° C. The skull bone over the barrel cortex was then thinned to a thickness of ˜30-40 μm as described (PMID: 20134419). For this procedure, the bone was manually thinned over a 30 minute period, and the amount of downward pressure was kept to a minimum. To induce a compression injury, the skull was thinned within 5 min to a thickness of ˜10-15 μm. Once thinned, the blunt of a surgical instrument was used to gently press the pliable skull bone downward. […]
as §2, §3
Image Analysis. All quantitative analyses and processing of 3D/4D imaging data were performed using Imaris 7.0 software (Bitplane). […] Afterward, 10 microglia per mouse were randomly selected for quantification of process length. […]

## S=C=Nc1cccc(NC(=S)NCCCCNC(=S)Nc2cccc(N=C=S)c2)c1 [MRS2578]
[1]
  percentage of phagocytic (jellyfish) microglia in the imaging field: significantly reduced

## CSc1nc(N)c2ncn([C@@H]3O[C@H](COP(=O)(O)O)[C@@H](O)[C@H]3O)c2n1 [MeSAMP]
[1]
  percentage of phagocytic (jellyfish) microglia in the imaging field: significantly reduced
[2]
  length of microglial processes in contact with the glial limitans: significantly reduced

## O=S(=O)([O-])c1cc(S(=O)(=O)O)ccc1C1=c2cc3c4c(c2Oc2c1cc1c5c2CCCN5CCC1)CCC[N+]=4CCC3 [SR101]
[3]
  rate of passage through the skull into the subarachnoid space: pass through the skull more quickly than larger compounds

## N[C@@H](CCC(=O)N[C@@H](CS)C(=O)NCC(=O)O)C(=O)O [glutathione]
neutrophils; pretreatment with 100 mM, transcranial, FIG. 8
  recruitment of neutrophils following compression injury: significantly reduced
[1]; pretreatment with 100 mM, transcranial, FIG. 9
  formation of phagocytic (jellyfish) microglia following injury: eliminated the formation
[2]; pretreatment with 100 mM, transcranial, FIG. 10
  microglia extending their processes and contacting the glial limitans: completely prevented

## Nc1ncnc2c1ncn2[C@@H](C=O)O[C@@H](C=O)COP(=O)(O)OP(=O)(O)OP(=O)(O)O [oxidized ATP]
neutrophils; transcranial P2X7 antagonist applied to skull before injury, FIG. 5
  neutrophil recruitment to the injury site: completely blocked
[1]
  percentage of phagocytic (jellyfish) microglia in the imaging field: not

## trinitrophenyl-ATP hydrate [TNP-ATP hydrate]
[1]
  percentage of phagocytic (jellyfish) microglia in the imaging field: significantly reduced
[2]
  length of microglial processes in contact with the glial limitans: significantly reduced
